Reference: patent US10039836B2, “Polyamine-dihydroxybenzoic acid conjugate hydrogels as iron chelators” (THE UNIVERSITY OF KANSAS, priority 2010, dated 2018)

Columns and labels:
A549 cells = test: MTS cytotoxicity assay (CellTiter 96); type: cell-based; details: ~24 hours incubation
Protocol: (§1) High throughput cell viability assays were completed using standard procedures. Cytotoxicity of polymers was determined by the CellTiter 96® Aqueous Cell Proliferation Assay (Promega). A549 and HUVEC cells were cultured and incubated with polymers for ˜24 hours. Next, the media was removed and replaced with a mixture of 100 μL fresh culture media and 20 μL MTS reagent solution and cells were incubated for 3 hours at 37° C. in a 5% CO2 incubator. The absorbance of each well was then measured at 490 nm using a microtiter plate reader (SpectraMax, M25, Molecular Devices Corp.) to determine relative cell viability.

HUVEC cells = test: MTS cytotoxicity assay (CellTiter 96); type: cell-based; details: ~24 hours incubation
Protocol: as §1

[1] = cited from earlier work

SMILES | toxic effect on A549 cells (A549 cells) | toxic effect on HUVEC cells (HUVEC cells) | relative iron binding constant ([1]; Fe(III)) | Log K ([1]; iron)
CC(=O)N(O)CCCCCNC(=O)CCC(=O)N(O)CCCCCNC(=O)CCC(=O)N(O)CCCCCN [DFO, desferoxamine] | no toxic effect | considerably toxic even at concentration as low as 10 μg/mL |  | 
O=C(N[C@H]1COC(=O)[C@@H](NC(=O)c2cccc(O)c2O)COC(=O)[C@@H](NC(=O)c2cccc(O)c2O)COC1=O)c1cccc(O)c1O [Enterobactin] |  |  | 35.5 | 52
